Measured values taken from paper PMC12216609, “Inhibitors of eIF1A-ribosome interaction unveil uORF-dependent regulation of translation initiation and antitumor and antiviral effects” (The EMBO Journal, 2025).
Several values for one entry are separate records, joined by “and”; a condition that tells them apart may be missing. Equal values may be shown once. Read-outs that look alike come from different tables or passages of the source.

Tests used:
eIF1A-RPS10 interaction = target: T1, eIF1A-RPS10 interaction (Homo sapiens, UniProt P46783+P47813); assay: Split-Renilla luciferase eIF1A-RPS10 interaction screen, dose-response; assay type: biochemical; conditions: Appendix Table S1; read-out: IC50 from the split RL screen
T1 construct: made in house; host or cells: E. coli BL21 (PRSFduet); unpurified lysate supernatant
Method: While knockdown (KD) studies of eIF1A provided valuable insights into its role in mammalian cell translation (Sehrawat et al, [2019]), this approach presents several limitations. First, it fails to elucidate the functional significance of the opposing functions of eIF1A N- and C-terminal tails with respect to scanning and start codon fidelity. Second, the extended duration required for achieving efficient knockdown, 48–72 h, impairs our ability to differentiate between direct and indirect effects. To overcome these constraints, we set out to develop small-molecule inhibitors targeting eIF1A. Guided by structural and biochemical studies showing eIF1A binding to the small ribosomal subunit at the A-site and interacting directly with RPS10 through its N-terminal tail (Haimov et al, [2017]; Passmore et al, [2007]; Sehrawat et al, [2019]), our approach focused on disrupting the interaction between eIF1A and RPS10. […] The interaction between eIF1A and RPS10 brings the two parts together, leading to the reconstitution of the enzymatic activity (Haimov et al, [2017]). In this system, the spatial arrangement of the two RL parts is critical for the enzymatic activity, making it sensitive not only to direct interference with the interacting proteins but also to changes in the conformation of the fused proteins. In the eIF1A-RPS10 split-RL pair, the C-terminus of eIF1A is fused to N-RL (Fig. 1A), in order to maintain the NTT accessible to RPS10 binding. This pair was cloned and expressed in bacteria as recombinant proteins and used to screen a library of ~50,000 small molecules from diverse sources (Ashkenazi et al, [2017]).
eIF1A-ΔC-Renilla and RPS10-ΔN-Renilla were transformed into BL21 E. coli by heat shock transformation. A bacterial starter of 5 ml LB was incubated overnight at 37 °C and transferred into 1 L LB for incubation at 37 °C until OD ~ 0.5–0.7. Next, protein expression was induced with 0.5 mM IPTG, and bacterial cells were incubated overnight at 16 °C. Bacterial cell pellet was collected after centrifugation (3000 RPM, 15 min), resuspended in 20 ml TKE buffer (Tris 10 mM, KCl 100 mM, EDTA 0.1 mM), sonicated (bath sonicator, 24 cycles of 30 s) and centrifuged again (15000 RPM, 30 min). Supernatants were collected, analyzed for RL activity, and then used for high throughput drug screen (HTS) at the Weizmann G-INCPM HTS unit as described (Ashkenazi et al, [2017]). In addition to the standard controls of this protocol, the two parts of the split RL, without eIF1A or RPS10, were tested as controls. Selected compounds were purchased from Sigma-Aldrich and Enamine. Compound powders were resuspended in DMSO for a final concentration of 10 mM and stored at −20 °C.

[1] = tested on: IRF7 5'UTR firefly luciferase reporter in HEK293T cells; conditions: for LONG (summary - All), normalized to DMSO / SHORT (summary - All), normalized to DMSO: individual replicates, outliers excluded, DMSO = 1; for average ( long vs short ratio): summary - All;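 for all read-outs here: luciferase signal corrected by a co-transfected GFP reporter for transfection efficiency, read after overnight compound exposure, with Long and Short reporters differing in 5'UTR length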
[2] = tested on: cap-proximal AUG GFP reporter in HEK293T cells; assay type: cell-based; conditions: GFP WB densitometry; 20 µM overnight; dmso 0.965946
From the text: Translation from an AUG preceded by a very short 5'UTR (less than 30 nt) is usually inefficient and frequently bypassed, resulting in initiation from a downstream AUG, a phenomenon known as leaky scanning. […] To examine the impact of 1Ais on short 5'UTR initiation, we used a GFP reporter gene containing an AUG located 16 nt downstream from the 5' end followed by a second in-frame downstream AUG (Fig. 1F; Appendix Fig. S1B). Cells were transfected with this GFP reporter gene followed by exposure to DMSO (vehicle) and 1Ais. Initiations from upstream (US) or downstream (DS) AUGs were determined by western blot (WB) with anti-GFP antibodies and the ratio between the US and DS AUG was determined.
For the analysis of translation from very short 5'UTR and Leaky scanning, HEK293T cells were transfected with a GFP (20 ng/well) reporter gene driven by a cap-proximal and downstream AUGs (Elfakess et al, [2011]) together with a luciferase reporter gene (100 ng/well) as normalizing control and treated with 20 µM of 1Ais as described above. GFP levels were determined by Western blot (WB) (GFP antibody, Abcam #ab290) and quantified by densitometry (ImageJ) and normalized to the measured luciferase activity.
HEK293T cells were transfected with the GFP reporter gene schematically shown on the top. The first
AUG is […] from the 5’ end and the downstream AUG is in the same frame. Six hours after transfection, cells were treated with 1Ais. After overnight exposure to 1Ais, GFP expression was analyzed by WB using anti -GFP antibodies.
US/DS ratio was determined by densitometry and represents the long protein expression (upstream AUG, US) vs the […]
biological replicates. (C-D) Analysis of reporter genes mRNA levels after 1Ais treatment.

[3] = tested on: CUG/GUG vs AUG start codon luciferase reporters in HEK293T cells; assay: Near-cognate AUG starting codon fidelity reporter assay (GUG, CUG vs AUG); assay type: cell-based; conditions: for GUG vs AUG data (%): individual repeat; for GUG vs AUG (%) Average: summary average of repeats, DMSO control average […]; for CUG vs AUG (%): CUG start codon reporter relative to AUG reporter (AUG = 100); for CUG vs AUG (%) / GUG vs AUG (%): compound at 20uM (summary head), single-experiment calculation; for GUG vs AUG (%): GUG start codon reporter relative to AUG reporter (AUG = 100)
Method: We next considered the importance of eIF1A in controlling start codon fidelity in yeast and mammalian cells (Martin-Marcos et al, [2011]; Martin-Marcos et al, [2017]; Sehrawat et al, [2019]; She et al, [2023]) and tested how inhibition of eIF1A by 1Ais affects the initiation from near-cognate AUG. The effect of 1Ais was analyzed using firefly luciferase reporters bearing either AUG (control), CUG, or GUG as the exclusive translation initiation sites. Co-transfected GFP reporter served as an internal control for transfection efficiency.
For the near-cognate AUG Starting codon fidelity reporter assay, HEK293T cells were transfected with 100 ng of the previously described luciferase reporter constructs driven either by AUG, CUG, and GUG (Tang et al, [2017]) together with GFP expressing plasmid (20 ng) as normalizing control. Luciferase and GFP levels were determined as described above.
Appendix Figure S1: (A) HEK293T cells were transfected with Luciferase reporter genes with either CUG or AUG as their exclusive starting codon. 6 hours after transfection, cells were exposed to 1Ais, and the luminescence from all constructs was measured after overnight incubation. Bars represent the ratio between luminescence from the AUG starting codon and CUG after normalization with co-transfected GFP; Error bars represent SEM, * denotes p<0.05 (T-test comparing to DMSO control), n=≥4 independent biological replicates.

[4] = raw data calculation of one experiment, GFP normalized, AUG set to 100, compound marked (20)

T1 sequence (P47813 whole entry, one chain of several): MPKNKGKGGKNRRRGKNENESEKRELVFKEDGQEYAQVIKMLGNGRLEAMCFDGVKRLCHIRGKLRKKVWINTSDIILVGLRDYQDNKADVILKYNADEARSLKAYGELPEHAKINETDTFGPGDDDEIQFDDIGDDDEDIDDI

Structure (SMILES) | IC50 (eIF1A-RPS10 interaction) [µM] | LONG (summary - All), normalized to DMSO ([1]; Long reporter, 20 µM) | SHORT (summary - All), normalized to DMSO ([1]; Short reporter, 20 µM) | average ( long vs short ratio) ([1]; 20 µM) | US/DS ratio, average [2] | GUG vs AUG data (%) ([3]; compound at 20uM) | GUG vs AUG (%) Average ([3]; compound at 20uM) [%] | LONG (summary - All), normalized to DMSO ([1]; Long reporter, 5 µM) | SHORT (summary - All), normalized to DMSO ([1]; Short reporter, 5 µM) | Long: Normalized to average DMSO ([1]; data section, Long reporter, GFP-corrected, 5 µM, per experiment) | Short: Normalized to average DMSO ([1]; data section, Short reporter, GFP-corrected, 5 µM, per experiment, includes values excluded as outliers) | average ( long vs short ratio) ([1]; 5 µM) | GUG vs AUG data (%) ([3]; compound at 5uM) | GUG vs AUG (%) Average ([3]; compound at 5uM) [%] | Long 5'UTR reporter luciferase activity, normalized to DMSO (=1), single replicates ([1]; compound at 20 µM, left data block (Long), source data of Fig 1C) | calculation: CUG (AUG = 100) [3, 4] | calculation: GUG (AUG = 100) [3, 4] | CUG vs AUG (%) [3] [%] | GUG vs AUG (%) [3] [%]
NS(=O)(=O)c1cccc(-c2ccc(C3Nc4ccccc4-c4nc5ccccc5n43)o2)c1 (stereo not drawn) [1Ai-0050] | 26 | 1.25 and 0.94 and 0.54 and 1.63 | 0.72 and 0.91 | 1.337 | 1.064 | 2.02% and 1.27% and 1.28% and 1.15% | 1.43 | – | – | – | – | – | – | – | – | – | – | – | –
O=C(Nc1nc(-c2c[nH]c3ccccc23)cs1)c1cc(=O)[nH]c2ccccc12 [1Ai-0403] | 17 | – | – | – | 1.283 | – | – | 0.54 and 1.00 and 0.95 | 1.05 and 0.93 and 1.12 | 0.5423 and 1 and 0.9496 | 1.05 and 0.9341 and 1.121 | 0.803 | 1.56% and 2.09% and 1.50% and 2.83% | 1.99 | – | – | – | – | –
c1csc(-c2nc(NCc3nnc4ccccn34)c3ccccc3n2)c1 [1Ai-2136] | 29 | 0.43 and 0.72 and 0.55 and 0.54 | 0.63 and 0.25 and 0.98 and 0.99 and 0.71 and 0.58 | 0.813 | 0.8866 | 1.58% and 2.63% and 2.62% and 2.27% | 2.27 | – | – | – | – | – | – | – | 0.43 and 1.0233 and 1.053 and 0.724 and 0.552 and 0.5382 | – | – | – | –
O=S(=O)(Cc1cc(Cl)c2c(c1)OCCO2)Cc1nc(-c2ccccc2)no1 [1Ai-6476] | 15 | 0.42 and 1.63 and 1.39 and 0.53 | 0.36 and 1.11 and 1.08 and 0.95 | 1.134 | 0.719 | 1.75% and 1.69% and 1.77% and 1.59% | 1.70 | – | – | – | – | – | – | – | – | 6.068 | 1.669 | – | –
O=C1c2ccccc2NC(c2cc(Cl)c3c(c2)OCO3)N1C1CC1 (stereo not drawn) [1Ai-6586] | 24 | 0.0557 and 0.45 and 1.19 and 0.73 | 0.06 and 0.81 and 0.69 and 1.23 | 0.871 | 0.8389 | 1.26% and 0.96% and 1.21% and 1.81% | 1.31 | – | – | – | – | – | – | – | – | – | – | 6.859 | 1.078
COC(=O)C1=C(C)NC2=C(C(=O)CC(c3ccc(F)cc3)C2)C1c1ccc(N(C)C)cc1Cl (stereo not drawn) [1Ai-9162] | 16 | 0.54 and 0.53 and 0.27 and 0.64 | 0.54 and 0.47 and 0.46 | 1.009 | 0.9825 | 2.05% and 2.20% and 2.48% and 2.61% | 2.33 | – | – | – | – | – | – | – | – | – | – | 9.614 | 2.083
